Results from patent US20230126893A1, “[(1,4,5-TRISUBSTITUTED-1H-PYRAZOL-3-YL)SULFANYL]ACETIC ACID DERIVATIVES, SALTS THEREOF, AND USE THEREOF AS ACTIVE HERBICIDAL INGREDIENTS” (BAYER AKTIENGESELLSCHAFT, priority 2020, published 2023).

Assays:
Assay type in all cases: in vivo
Veronica persica [1] = test: Pre-emergence herbicidal effect against VERPE; conditions: 1280 g/ha, visual score after 3 weeks, 100% = plants have died, 0% = like control plants
Text: (§1) 1. Pre-emergence herbicidal effect and crop plant compatibility Seeds of monocotyledonous and dicotyledonous weed plants and crop plants are laid out in sandy loam soil in wood-fibre pots and covered with soil. The compounds of the invention, formulated in the form of wettable powders (WP) or as emulsion concentrates (EC), are then applied to the surface of the covering soil as aqueous suspension or emulsion at a water application rate equating to 600 to 800 L/ha with addition of 0.2% wetting agent. After the treatment, the pots are placed in a greenhouse and kept under good growth conditions for the trial plants. The damage to the test plants is scored visually after a test period of 3 weeks by comparison with untreated controls (herbicidal activity in percent (%): 100% activity=the plants have died, 0% activity=like control plants). [table]

Stellaria media [2] = test: Post-emergence herbicidal effect against STEME; conditions: 1280 g/ha, visual assessment about 3 weeks after treatment, 100% = plants have died, 0% = like control plants
Experimental: (§2) [table] 2. Post-emergence herbicidal effect and crop plant compatibility Seeds of monocotyledonous and dicotyledonous weed and crop plants are laid out in sandy loam soil in wood-fibre pots, covered with soil and cultivated in a greenhouse under good growth conditions. 2 to 3 weeks after sowing, the test plants are treated at the one-leaf stage. The compounds of the invention, formulated in the form of wettable powders (WP) or as emulsion concentrates (EC), are then sprayed onto the green parts of the plants as aqueous suspension or emulsion at a water application rate equating to 600 to 800 l/ha with addition of 0.2% wetting agent. After the test plants have been left to stand in the greenhouse under optimal growth conditions for about 3 weeks, the action of the preparations is assessed visually in comparison to untreated controls (herbicidal action in percent (%): 100% activity=the plants have died, 0% activity=like control plants).

[3] = tested on: Tripleurospermum inodorum; test: Post-emergence herbicidal effect against MATIN; conditions: 1280 g/ha, visual assessment about 3 weeks after treatment, 100% = plants have died, 0% = like control plants
Experimental: as §2

Stellaria media [4] = test: Pre-emergence herbicidal effect against STEME; conditions: 1280 g/ha, visual score after 3 weeks, 100% = plants have died, 0% = like control plants
Text: as §1

Abutylon threophrasti = test: Post-emergence herbicidal effect against ABUTH; conditions: 1280 g/ha, visual assessment about 3 weeks after treatment, 100% = plants have died, 0% = like control plants
Experimental: as §2

Alopecurus myosuroides [5] = test: Post-emergence herbicidal effect against ALOMY; conditions: 1280 g/ha, visual score after about 3 weeks, 100% = plants have died, 0% = like control plants
Experimental: as §2

[6] = tested on: Tripleurospermum inodorum; test: Pre-emergence herbicidal effect against MATIN; conditions: 1280 g/ha, visual score after 3 weeks, 100% = plants have died, 0% = like control plants
Text: as §1

Poa annua [7] = test: Pre-emergence herbicidal effect against POAAN; conditions: 1280 g/ha, visual score after 3 weeks, 100% = plants have died, 0% = like control plants
Text: as §1

Veronica persica [8] = test: Post-emergence herbicidal effect against VERPE; conditions: 1280 g/ha, visual assessment about 3 weeks after treatment, 100% = plants have died, 0% = like control plants
Experimental: as §2

Digitaria sanguinalis [9] = test: Post-emergence herbicidal effect against DIGSA; conditions: 1280 g/ha, visual score after about 3 weeks, 100% = plants have died, 0% = like control plants
Experimental: as §2

Setaria viridis [10] = test: Pre-emergence herbicidal effect against SETVI; conditions: 1280 g/ha, visual score after 3 weeks, 100% = plants have died, 0% = like control plants
Text: as §1

Lolium rigidum = test: Pre-emergence herbicidal effect against LOLRI; conditions: 1280 g/ha, visual score after 3 weeks, 100% = plants have died, 0% = like control plants
Text: as §1

Alopecurus myosuroides [11] = test: Pre-emergence herbicidal effect against ALOMY; conditions: 1280 g/ha, visual score after 3 weeks, 100% = plants have died, 0% = like control plants
Text: as §1

Setaria viridis [12] = test: Post-emergence herbicidal effect against SETVI; conditions: 1280 g/ha, visual assessment about 3 weeks after treatment, 100% = plants have died, 0% = like control plants
Experimental: as §2

Digitaria sanguinalis [13] = test: Pre-emergence herbicidal effect against DIGSA; conditions: 1280 g/ha, visual score after 3 weeks, 100% = plants have died, 0% = like control plants
Text: as §1

Amaranthus retroflexus [14] = test: Post-emergence herbicidal effect against AMARE; conditions: 1280 g/ha, visual assessment about 3 weeks after treatment, 100% = plants have died, 0% = like control plants
Experimental: as §2

Amaranthus retroflexus [15] = test: Pre-emergence herbicidal effect against AMARE; conditions: 1280 g/ha, visual score after 3 weeks, 100% = plants have died, 0% = like control plants
Text: as §1

Bassia scoparia = test: Post-emergence herbicidal effect against KCHSC; conditions: 1280 g/ha, visual assessment about 3 weeks after treatment, 100% = plants have died, 0% = like control plants
Experimental: as §2

Echinochloa crus-galli [16] = test: Pre-emergence herbicidal effect against ECHCG; conditions: 1280 g/ha, visual score after 3 weeks, 100% = plants have died, 0% = like control plants
Text: as §1

Poa annua [17] = test: Post-emergence herbicidal effect against POAAN; conditions: 1280 g/ha, visual assessment about 3 weeks after treatment, 100% = plants have died, 0% = like control plants
Experimental: as §2

Echinochloa crus-galli [18] = test: Post-emergence herbicidal effect against ECHCG; conditions: 1280 g/ha, visual score after about 3 weeks, 100% = plants have died, 0% = like control plants
Experimental: as §2

Compound | Pre-emergence action against VERPE (Veronica persica [1]) | Post-emergence action against STEME (Stellaria media [2]) | Post-emergence action against MATIN [3] | Pre-emergence action against STEME (Stellaria media [4]) | Post-emergence action against ABUTH (Abutylon threophrasti) | Post-emergence action against ALOMY (Alopecurus myosuroides [5]) | Pre-emergence action against MATIN [6] | Pre-emergence action against POAAN (Poa annua [7]) | Post-emergence action against VERPE (Veronica persica [8]) | Post-emergence action against DIGSA (Digitaria sanguinalis [9]) | Pre-emergence action against SETVI (Setaria viridis [10]) | Pre-emergence action against LOLRI (Lolium rigidum) | Pre-emergence action against ALOMY (Alopecurus myosuroides [11]) | Post-emergence action against SETVI (Setaria viridis [12]) | Pre-emergence action against DIGSA (Digitaria sanguinalis [13]) | Post-emergence action against AMARE (Amaranthus retroflexus [14]) | Pre-emergence action against AMARE (Amaranthus retroflexus [15]) | Post-emergence action against KCHSC (Bassia scoparia) | Pre-emergence action against ECHCG (Echinochloa crus-galli [16]) | Post-emergence action against POAAN (Poa annua [17]) | also measured
CCOC(=O)CSc1nn(-c2ccccc2F)c(-c2ccc(F)c(F)c2)c1Br [Example I-002, Ethyl {[4-bromo-5-(3,4-difluorophenyl)-1-(2-fluorophenyl)-1H-pyrazol-3-yl]sulfanyl}acetate] | 100% | 100% | 100% | 100% | 90% | 100% | 100% | 100% | 90% | 100% | 100% | 100% | 90% | 100% | 90% | 90% | 100% |  |  |  | 
O=C(O)CSc1nn(-c2ccccc2F)c(-c2ccc(F)c(F)c2)c1Br [Example I-005, {[4-Bromo-5-(3,4-difluorophenyl)-1-(2-fluorophenyl)-1H-pyrazol-3-yl]sulfanyl}acetic acid] | 100% | 100% | 100% | 100% |  | 100% | 100% | 100% | 90% | 100% | 100% | 100% | 90% |  | 100% | 90% | 100% |  |  |  | 
O=C(O)CSc1nn(-c2cccc(F)c2F)c(-c2ccccc2)c1Br [Example I-006] | 100% | 100% | 100% | 90% |  | 100% | 100% | 100% | 90% | 100% | 100% | 90% | 90% |  | 100% | 100% | 100% | 90% | 90% | 100% | 
O=C(O)CSc1nn(-c2ccccc2F)c(-c2cc(F)cc(Cl)c2)c1Br [Example I-009] | 90% | 100% | 100% | 100% | 90% |  | 100% | 100% | 90% |  | 100% | 100% | 90% |  | 100% | 100% | 100% | 100% | 90% | 100% | 
CCOC(=O)C[S+]([O-])c1nn(-c2cccc(F)c2F)c(-c2ccccc2)c1Br (centres unmarked) [Example I-010] | 100% | 90% | 100% | 100% | 90% | 100% | 100% | 100% | 90% | 90% | 100% | 100% | 100% |  | 100% | 90% | 100% | 90% | 100% | 100% | Post-emergence action against ECHCG (Echinochloa crus-galli [18]): 100%
CCOC(=O)CSc1nn(-c2ccccc2F)c(-c2ccc(F)c(F)c2)c1C#N [Example I-012] | 100% | 100% | 90% | 100% |  | 100% | 100% | 100% | 100% | 100% | 100% | 90% |  | 90% | 100% | 90% | 100% | 90% | 100% | 100% | Post-emergence action against ECHCG (Echinochloa crus-galli [18]): 100%
CCOC(=O)CSc1nn(-c2ccccc2F)c(-c2ccc(F)nc2)c1Br [II-001, Ethyl {[4-bromo-1-(2-fluorophenyl)-5-(6-fluoropyridin-3-yl)-1H-pyrazol-3-yl]sulfanyl}acetate] | 100% | 90% | 100% | 90% | 90% | 100% | 100% | 100% | 90% | 100% | 100% | 100% | 100% | 90% | 100% | 100% | 100% |  | 100% | 100% | Post-emergence action against ECHCG (Echinochloa crus-galli [18]): 100%
O=C(O)CSc1nn(-c2ccccc2F)c(-c2cncc(Cl)c2)c1Br [II-008] | 100% | 100% | 100% | 100% | 90% | 100% | 100% | 100% | 100% | 100% | 100% | 100% | 100% | 90% | 100% | 90% | 100% |  | 100% | 100% | Post-emergence action against ECHCG (Echinochloa crus-galli [18]): 100%
